Source: PubChem BioAssay AID248 (DTP/NCI, 2004)
Several values for one entry are separate records, joined by “and”; a condition that tells them apart may be missing. Equal entries are not always repeated. Toxic doses and inconclusive results are not listed.

Tested on: L1210 leukemia ip in BDF1 mice, survival T/C
Test: NCI In Vivo Anticancer Drug Screen. Data for tumor model L1210 Leukemia (intraperitoneal) in B6D2F1 (BDF1) mice
Conditions: endpoint: mean survival time, higher = longer survival
Method in brief: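 Ratio derived from survival: compound-dosed mice over vehicle-dosed mice, all bearing a transplantable tumor.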

CCOC(=O)C1(NC(=O)N(CCCl)N=O)CCCCC1 was tested, and the T/C (dose: 16.0 mg/kg/injection, schedule: Q01DX001 (ip), vehicle: other) was 97 % of control, the T/C (dose: 31.0 mg/kg/injection, schedule: Q01DX001 (ip), vehicle: other) was 106 % of control and the T/C (dose: 125.0 mg/kg/injection, schedule: Q01DX001 (ip), vehicle: other) was 188 % of control and 220 % of control. For the same molecule, the T/C (dose: 250.0 mg/kg/injection, schedule: Q01DX001 (ip), vehicle: other) was 296 % of control and 317 % of control, the T/C (dose: 375.0 mg/kg/injection, schedule: Q01DX001 (ip), vehicle: other) was 216 % of control and the T/C (dose: 500.0 mg/kg/injection, schedule: Q01DX001 (ip), vehicle: other) was 194 % of control and 322 % of control. The T/C (dose: 750.0 mg/kg/injection, schedule: Q01DX001 (ip), vehicle: other) was 331 % of control and the T/C (dose: 1000.0 mg/kg/injection, schedule: Q01DX001 (ip), vehicle: other) was 295 % of control.

With CN(CO)c1nc(N(C)CO)nc(N(C)CO)n1 the T/C (dose: 6.25 mg/kg/injection, schedule: Q01DX009 (ip), vehicle: saline) was 109 % of control, the T/C (dose: 12.5 mg/kg/injection, schedule: Q01DX009 (ip), vehicle: saline) was 113 % of control and the T/C (dose: 25.0 mg/kg/injection, schedule: Q01DX009 (ip), vehicle: saline) was 120 % of control. For the same molecule, the T/C (dose: 100.0 mg/kg/injection, schedule: Q01DX009 (ip), vehicle: saline) was 166 % of control and the T/C (dose: 200.0 mg/kg/injection, schedule: Q01DX009 (ip), vehicle: saline) was 86 % of control.

With O=C(O)c1ccc(C(Cl)(Cl)Cl)cc1 the T/C (dose: 50.0 mg/kg/injection, schedule: Q01DX009 (ip), vehicle: saline sonified) was 96 % of control, the T/C (dose: 100.0 mg/kg/injection, schedule: Q01DX009 (ip), vehicle: saline sonified) was 115 % of control and the T/C (dose: 100.0 mg/kg/injection, schedule: Q04DX003 (ip), vehicle: Klucel (hydroxypropylcellulose) (HPC)) was 102 % of control. For the same molecule, the T/C (dose: 200.0 mg/kg/injection, schedule: Q01DX009 (ip), vehicle: saline sonified) was 118 % of control and the T/C (dose: 200.0 mg/kg/injection, schedule: Q04DX003 (ip), vehicle: Klucel (hydroxypropylcellulose) (HPC)) was 94 % of control.

For Nc1cnccc1N1CCN(c2cccc3ccccc23)CC1, the T/C (dose: 44.0 mg/kg/injection, schedule: Q01DX009 (ip), vehicle: saline with Tween-80) was 98 % of control, the T/C (dose: 67.0 mg/kg/injection, schedule: Q01DX009 (ip), vehicle: saline with Tween-80) was 93 % of control and the T/C (dose: 100.0 mg/kg/injection, schedule: Q01DX009 (ip), vehicle: saline with Tween-80) was 155 % of control. The T/C (dose: 100.0 mg/kg/injection, schedule: Q04DX003 (ip), vehicle: saline with Tween-80) was 98 % of control, the T/C (dose: 200.0 mg/kg/injection, schedule: Q04DX003 (ip), vehicle: saline with Tween-80) was 96 % of control and the T/C (dose: 400.0 mg/kg/injection, schedule: Q04DX003 (ip), vehicle: saline with Tween-80) was 89 % of control.
